In PMC6838048, “A Cell-Free Approach Based on Phospholipid Characterization for Determination of the Cell Specific Unbound Drug Fraction (fu,cell)” (Pharmaceutical Research, 2019):

What was measured:
Assay type in all cases: in vitro ADME
[1] = fu,cell by equilibrium dialysis of cell homogenate, HEK293; conditions: human, dialysis 4 h 37°C, 10 million cells/mL homogenate, read-out: fu,HEK293 Geomean
Description: (§1) fu,cell was measured in cassette-mode as previously described with minor modifications ([9]). Briefly, 10 million cells/mL were suspended in HBSS buffered with 10 mM HEPES and homogenized on ice by sonication (VCX 750 Sonicator, 3 mm probe, 20% intensity, 10 s). Up to 8 compounds were combined randomly and spiked into the homogenate for a final concentration of 0.5 μM. Equilibrium dialysis was performed in a Rapid Equilibirum device (Thermo Fisher Scientific) against blank HBSS buffered with 10 mM HEPES, for 4 h at 37°C on an orbital shaker at 900 rpm. Stability controls were kept at 4° and 37°C for the duration of the experiment. The concentration in both dialysis chambers was quantified by extracting the compound with acetonitrile/water (60/40) containing internal standard. Matrixes were matched with blank buffer or cell homogenate, respectively. LC-MS/MS parameters are available in Table S9. All experiments were carried out in triplicates and at least at two independent occasions.
(§2) The unbound fraction in the cell homogenate (fu,hom) was determined according to Eq. (1):1 fu,hom=Cbuffer/Chom and the fraction of unbound compound in the cell (fu,cell) was calculated by correcting for homogenate dilution according to Eq. (2):2 fu,cell=1/DP∙1/fu,hom−1+1 where the dilution constant DP was calculated using Eq. (3), assuming the Vcell to be equal to 6.5 μL/mg protein ([6],[10]). Protein content in the cell homogenates was determined at each experiment using the BCA Protein Assay Reagent Kit (Thermo Fisher Scientific Inc.).3 DP=1/Vcell

[2] = fu,cell by equilibrium dialysis of cell homogenate, HL60; conditions: human, dialysis 4 h 37°C, 10 million cells/mL homogenate, read-out: fu,HL60 Geomean
Description: as §1, §2

[3] = fu,cell by equilibrium dialysis of cell homogenate, Caco-2; conditions: human, Caco-2 cell homogenate, dialysis 4 h 37°C, 10 million cells/mL homogenate, read-out: fu,Caco-2 Geomean
Description: as §1
(§3) (3), assuming the Vcell to be equal to 6.5 μL/mg protein ([6],[10]). Protein content in the cell homogenates was determined at each experiment using the BCA Protein Assay Reagent Kit (Thermo Fisher Scientific Inc.).3 DP=1/Vcell

[4] = fu,cell by equilibrium dialysis of cell homogenate, LLC-PK1; conditions: pig, dialysis 4 h 37°C, 10 million cells/mL homogenate, read-out: fu,LLCPK1 Geomean
Description: as §1, §2

[5] = fu,cell by equilibrium dialysis of cell homogenate, A549; conditions: human, dialysis 4 h 37°C, 10 million cells/mL homogenate, read-out: fu,A549 Geomean
Description: as §1, §2

[6] = fu,cell by equilibrium dialysis of cell homogenate, K562; conditions: human, dialysis 4 h 37°C, 10 million cells/mL homogenate, read-out: fu,K562 Geomean
Description: as §1, §2

[7] = fu,cell by equilibrium dialysis of cell homogenate, MDCK; conditions: dog, dialysis 4 h 37°C, 10 million cells/mL homogenate, read-out: fu,MDCK Geomean
Description: as §1, §3

[8] = fu,PL from membrane affinity to PL-covered silica beads, PC; conditions: silica beads covered with phosphatidylcholine (PC), Transil; beads coated with pure PC, 15 min incubation; read-out: fu,PC Geomean
Description: (§4) f u,PL was derived from membrane affinity measurements to beads covered with PLs as previously described ([6]).
(§5) Cbuffer was quantified by LC-MS/MS in samples of the supernatant that was obtained after 15 min incubation time on an orbital shaker at 1000 rpm and subsequent separation from the beads by centrifugation at 750 x g. […] Unspecific binding was evaluated by incubations into wells without added lipids.

[9] = fu,PL from membrane affinity to PL-covered silica beads, PS; conditions: silica beads covered with phosphatidylserine (PS), Transil; beads coated with pure PS, 15 min incubation; read-out: fu,PS Geomean
Description: as §4, §5

[10] = fu,PL from membrane affinity to PL-covered silica beads, PE; conditions: beads coated with pure PE, 15 min incubation; read-out: fu,PE Geomean
Description: as §4, §5

[11] = fu,PL from membrane affinity to PL-covered silica beads, mixed beads; conditions: for fraction unbound at 15 min: mixed beads PC:PE:PS:PI 52:22:12:14 mol%, 15 min incubation, read-out: fu,mixed bead Geomean; for fu,PL (in words): examples of Fig. 3c, individual PL beads and mixed beads
Description: as §4, §5

[12] = fu,cell by equilibrium dialysis of cell homogenate, primary human hepatocytes; conditions: primary human hepatocyte homogenate, dialysis 4 h 37°C, 10 million cells/mL homogenate, read-out: fu,HH Geomean
Description: as §1, §2

Row | fraction unbound at 4 h, 0.5 μM [1] | fraction unbound at 4 h, 0.5 μM [2] | fraction unbound at 4 h, 0.5 μM [3] | fraction unbound at 4 h, 0.5 μM [4] | fraction unbound at 4 h, 0.5 μM [5] | fraction unbound at 4 h, 0.5 μM [6] | fraction unbound at 4 h, 0.5 μM [7] | fraction unbound at 15 min [8] | fraction unbound at 15 min [9] | fraction unbound at 15 min [10] | fraction unbound at 15 min [11] | fraction unbound at 4 h, 0.5 μM [12] | fu,PL (in words) [11] | Structure (SMILES)
1 | 0.0403 | 0.0569 | 0.0245 | 0.0389 | 0.0161 | 0.0838 | 0.0338 | 0.001 | 0.0034 | 0.0067 | 0.002 | – | – | CC(C)n1c(/C=C/C(O)CC(O)CC(=O)O)c(-c2ccc(F)cc2)c2ccccc21 (stereo not shown) [Fluvastatin]
2 | 0.0637 | 0.206 | 0.1 | 0.0588 | 0.0287 | 0.119 | 0.069 | 0.0023 | 0.0016 | 0.0083 | 0.0034 | 0.0445 | – | COc1ccc([C@@H]2Sc3ccccc3N(CCN(C)C)C(=O)[C@@H]2OC(C)=O)cc1 [Diltiazem]
3 | 0.0906 | 0.339 | 0.174 | 0.34 | 0.0881 | 1 | 0.202 | 0.0101 | 0.0081 | 0.0099 | 0.0148 | 0.374 | – | COCCc1ccc(OCC(O)CNC(C)C)cc1 (stereo not shown) [Metoprolol]
4 | 0.0015 | 0.0023 | – | 0.0009 | 0.0002 | 0.0032 | – | 0.001 | 0.0001 | 0.0001 | 0.0001 | – | – | CCC(C)(C)C(=O)O[C@H]1C[C@@H](C)C=C2C=C[C@H](C)[C@H](CC[C@@H]3C[C@@H](O)CC(=O)O3)[C@H]21 [Simvastatin]
5 | 0.0208 | 0.0438 | 0.0118 | 0.0078 | 0.0085 | 0.0348 | 0.0215 | 0.0005 | 0.0006 | 0.0019 | 0.0004 | 0.0014 | – | Nc1ccc(/N=N/c2ccccc2)c(N)n1 [Phenazopyridine]
6 | 0.463 | 0.223 | 0.181 | 0.238 | 0.232 | 0.419 | 0.255 | 0.0203 | 0.0154 | 0.0131 | 0.0237 | 0.161 | – | COc1ccc2[nH]c([S+]([O-])Cc3ncc(C)c(OC)c3C)nc2c1 (stereo not shown) [Omeprazole]
7 | 0.246 | 0.205 | 0.0945 | 0.118 | 0.103 | 0.948 | 0.0968 | 0.0174 | 0.0018 | 0.0055 | 0.0081 | 0.247 | – | CCOc1nc2cccc(C(=O)O)c2n1Cc1ccc(-c2ccccc2-c2nnn[nH]2)cc1 [Candesartan]
8 | 0.196 | 0.676 | 0.566 | 0.566 | 0.922 | 1 | 0.35 | 0.008 | 0.0019 | 0.0126 | 0.0084 | – | intermediate | COC(=O)CCc1ccc(OCC(O)CNC(C)C)cc1 (stereo not shown) [Esmolol]
9 | 0.0074 | 0.011 | 0.0024 | 0.002 | 0.0012 | 0.0055 | 0.0045 | 0.0004 | 0.0002 | 0.0011 | 0.0002 | 0.0013 | – | CC[C@H](C)C(=O)O[C@H]1C[C@@H](C)C=C2C=C[C@H](C)[C@H](CC[C@@H]3C[C@@H](O)CC(=O)O3)[C@H]21 [Lovastatin]
10 | 0.226 | 0.445 | 0.133 | 0.144 | 0.416 | 0.485 | 0.37 | 0.0059 | 0.0093 | 0.0085 | 0.0069 | 0.0709 | – | Cc1ccccc1N1C(=O)c2cc(S(N)(=O)=O)c(Cl)cc2NC1C (stereo not shown) [Metolazone]
11 | 0.571 | 0.54 | 0.654 | 0.6 | 0.376 | 0.638 | 0.349 | 0.0534 | 0.0089 | 0.0109 | 0.0343 | 0.944 | high | CCCNC(=O)NS(=O)(=O)c1ccc(Cl)cc1 [Chlorpropamide]
12 | 0.0155 | 0.0168 | 0.0122 | 0.0047 | 0.0056 | 0.0234 | 0.0119 | 0.0007 | 0.0011 | 0.0026 | 0.0011 | 0.0044 | low | Cc1cccc(C)c1OCC(=O)N[C@@H](Cc1ccccc1)[C@@H](O)C[C@H](Cc1ccccc1)NC(=O)[C@H](C(C)C)N1CCCNC1=O [Lopinavir]
13 | 0.0824 | – | 0.0777 | 0.0783 | 0.0793 | 0.356 | 0.176 | 0.0014 | 0.0006 | 0.0032 | 0.0044 | 0.0824 | – | CCN(CC)CCCC(C)Nc1ccnc2cc(Cl)ccc12 (stereo not shown) [Chloroquine]

Row | Structure (SMILES) | fraction unbound at 4 h, 0.5 μM [1] | fraction unbound at 4 h, 0.5 μM [2] | fraction unbound at 4 h, 0.5 μM [3] | fraction unbound at 4 h, 0.5 μM [4] | fraction unbound at 4 h, 0.5 μM [5] | fraction unbound at 4 h, 0.5 μM [6] | fraction unbound at 4 h, 0.5 μM [7] | fraction unbound at 15 min [8] | fraction unbound at 15 min [9] | fraction unbound at 15 min [10] | fraction unbound at 15 min [11] | fraction unbound at 4 h, 0.5 μM [12] | fu,PL (in words) [11]
14 | Cn1c(=O)c2c(ncn2C)n(C)c1=O [Caffeine] | 0.248 | – | – | 0.115 | 0.0398 | 0.214 | 0.0593 | 0.0096 | 0.0025 | 0.0154 | 0.0145 | 0.248 | –
